Data on 1 compound can be found in patent publication US12329852B2, “Sustained-release 9-cis retinoic acid implantable drug delivery pellets for the prevention of postsurgical edema and lymphedema” (UNIVERSITY OF SOUTHERN CALIFORNIA, priority 2019, dated 2025).

The test system of series [1] is hind limb lymphedema. Description: Hind limb lymphedema model, paw thickness (implantable pellet). Type of series: in vivo, mouse. The following applies: for paw swelling, mean difference compared to control animals: implantable pellet 100 μg 9-cis RA, 30-day release. Here is the method:
All experiments were performed in accordance with the statutes from The Guide for the Care and Use of Laboratory Animals (National Research Council, 8th ed, 2011), the Animal Welfare Act, and other Federal regulations. The was approved by the University of Southern California Institutional Animal Care and Use Committee. Male and female Prox-1 green fluorescent protein (GFP) transgenic mice, 12-16 weeks old, weighing 20-30 g were bred within the University of Southern California animal facility. This GFP-expressing lymphatic reporter mouse was used because it conveniently allowed for the visualization of lymphatic vessels and other Prox1-expressing tissue under fluorescence microscopy, and facilitated the immunohistochemical staining of lymphatic vessels using anti-GFP primary antibody.
Under isoflurane-inhaled anesthesia, the lymphatic injury protocol was used on all experimental mice to induce hind limb lymphedema. This consisted of hind limb lymph node dissection followed by adjuvant radiation therapy. Using a dissecting microscope, a circumferential intradermal incision was made around the thigh, after which the ipsilateral inguinal fat pad, containing the inguinal lymph nodes, and ipsilateral popliteal lymph node were removed, as previously described. Visualization of the inguinal and popliteal lymphatics was facilitated by the injection of methylene blue dye on the dorsum of the paw and by the use of a green fluorescent microscope. Skin sutures were placed in 7-8 mm gaps to reinforce discontinuity of dermal lymphatics. The surgical area was then irradiated using a clinically relevant dose of 27.5 Gy radiation delivered by an XRad 320 device over a period of 5 days (550 cGy per day), which is the human equivalent dose for mouse.
Pellets were placed within the surgical wound intraoperatively and sutured in place to the adductor muscles of the thigh. Treatment pellets were custom-manufactured by Innovative Research of America (Sarasota, FL) to contain 100 μg of 9-cis RA, released over a period of 30 days using a matrix-driven delivery system. The carrier-binder excipients of the pellet matrix were synthetic and non-toxic, and included cholesterol, lactose, celluloses, phosphates, and stearates.
Prior to surgery, all animals were sex-, age-, and weight-matched to eliminate confounding variables. Paw thickness, the primary outcome, was measured weekly using electronic calipers for a total of 6 weeks. Paw thickness was normalized for each animal by calculating percent change relative to the unaffected paw. Hind limbs were photographed using a Nikon D5000 digital SLR flash camera using fixed distances, focal length, background, and positioning.

Series [2] relates to hind limb lymphedema. In words: ICG lymphography of hind limb, lymphatic clearance (implantable pellet). It is filed as in vivo, mouse. The conditions noted are these: postoperative week 6, 3 to 144 hours after ICG injection. Here is the method: At postoperative week 6, lymphatic clearance was measured using indocyanine green (ICG) lymphography to compare lymphatic function between the treatment and placebo groups. After inducing anesthesia via isoflurane inhalation, a sub-microliter injection system syringe was used to intradermally inject 2 uL of ICG on the dorsal aspect of the second and fifth paw digits. ICG lymphography images were recorded at 1, 3, 6, 12, 24, 48, 72, 96, and 144 hours post-injection. The fluorescence intensity of the lymphography images was quantified at each post-injection time point using ImageJ pixel intensity analysis (National Institutes of Health, Bethesda, MD).
Indocyanine green (ICG) lymphography is a well-established procedure used in clinics by healthcare providers to visualize lymphatic vessels in real-time for the purposes of diagnosis or preoperative planning. When ICG is injected intradermally, it is preferentially picked up and cleared by the lymphatic system. This imaging modality provides rapid visualization of lymphatic vessels and measures lymphatic clearance, acting as a surrogate for lymphatic function. […] Thus, at postoperative week 6 and prior to euthanasia, lymphatic clearance were monitored by quantifying the change in dermal fluorescence of mouse hind limbs injected with ICG.

Series [3] relates to lymphatic vessels of uninjured ears. In words: Lymphatic analysis of uninjured ears, LYVE-1 whole mount. It is filed as in vivo, BALB/c mice. The conditions noted are these: 0.08 mg/kg daily i.p., any duration. Here is the method: Bilateral ears of animals were harvested simultaneously with the diaphragm, removed of all hair using depilatory cream and fixed in 4% paraformaldehyde. The ears were then split between the inner and outer layers under a dissecting microscope and the cartilage removed prior to immunoflourescence staining. The whole mounted specimens were subsequently stained with anti-LYVE-1 and anti-CD-31 antibodies after washing with PBS, permeabilizing with 0.5% Triton X-100 (Sigma-Aldrich, USA), and incubated with the primary antibody (1:500) overnight. Green secondary antibodies (1:200 donkey anti-rabbit Alexa Fluor 488, Thermo Fisher Scientific, Canoga Park, CA) were used to stain for LYVE-1.
Slides were counterstained with hematoxylin and mounted. All images were obtained with a Keyence BZ-X700 microscope (Itasca, IL) and epidermal and dermal thickness was measured using ImageJ (National Institutes of Health, Betheseda, MD). The thickest part of the epidermis and dermis was measured in 5 high-power fields per section, as previously described. On the immunohistochemically stained slides, podoplanin stained vessels in the dermis and subcutis were quantified in ImageJ. Two high-power fields per section were randomly selected and then analyzed by a blinded reviewer. The reviewer scored the number of podoplanin stained vessels and the area (mm^2) of the dermis and subcutaneous tissue in each image. […]

With `CC1=C(/C=C/C(C)=C\C=C\C(C)=C\C(=O)O)C(C)(C)CCC1` [9-cis RA, 9-cis retinoic acid], the “paw swelling, mean difference compared to control animals” value is given as 7% in the series on hind limb lymphedema [1] (postoperative week 3), 12% with hind limb lymphedema [1] (postoperative week 4), 9% with hind limb lymphedema [1] (postoperative week 5) and 11% in the series on hind limb lymphedema [1] (postoperative week 6). The “change in paw swelling/thickness within the treatment group over time” value with hind limb lymphedema [1] (implantable pellet, between time points over 6 weeks) was “no significant differences in paw swelling are observed between time points”. Also, the “lymphatic drainage as change in ICG fluorescence compared to control” value in the series with hind limb lymphedema [2] is “significantly faster lymphatic drainage”. The “number of branch points, blind-ended sacs, loops, total length, density of lymphatic vessels in uninjured ears vs vehicle control” value in series [3] is given as “no significant difference”.
